{"source": "patent US20260364124A1", "about": "“ANTI-C. DIFFICILE SMALL MOLECULE METABOLITES FROM DIET AND GUT MICROBIOME” (The Children's Medical Center Corporation, priority 2023, published 2026)", "test_system": "C. difficile M7404", "assay": "In vitro polydatin bioactivation and C. difficile antagonism by conditioned (spent) media of B. uniformis AgshD", "assay_type": "cell-based, Clostridioides difficile", "conditions": "polydatin 500 μM, 1/2-diluted, C. difficile M7404 growth 12 h (FIG. 5A)", "experimental": "FIGS. 5A and 5B show microbiome-mediated polyphenol aglycone liberation. […] Step 2: Spent media was filter-sterilized. Step 3: C. difficile was grown in spent media from either vehicle or polydatin (top).\nGeneration of Bacteroides gene deletion mutants: Clean deletion mutants were created by allelic replacement whereby Bacteroides uniformis ATCC 8492 gshD (BACUNI_00919)was deleted. A modified pKNOCK-bla-ermGb suicide vector, pKNOCK-bla-ermGb_pheS*, that was previously engineered with a counter-selection system mediated by a variant phenylalanyl-tRNA synthetase (PheSA303G), lethal in the presence of 4-chloro-phenylalanine was leveraged. To generate deletion constructs, 1 kb regions flanking the genomic region-of-interest were amplified by PCR (Platinum SuperFi PCR Master Mix), purified, and cloned into the pKNOCK-bla-ermGb_pheS* plasmid in a three-piece ligation reaction. To mobilize resulting plasmids into Bacteroides, a triparental mating strategy was implemented. Overnight cultures of Bacteroides grown in BSG were diluted 50-fold into fresh pre-reduced BSG and grown to early exponential phase (OD600 ~0.1). The recipient strain was centrifuged at 4,000 rpm for 5 minutes and resuspended in 200 μL of 1× PBS. One-day-old E. coliDH5α lambda pir donor strain and E. coliDH5α helper strain with pRK 231 were scrapped from LB agar plates into 200 μL of 1× PBS. […]"}
{"smiles": "OC[C@H]1O[C@@H](Oc2cc(O)cc(/C=C/c3ccc(O)cc3)c2)[C@H](O)[C@@H](O)[C@@H]1O", "note": "[polydatin]", "values": [{"measurement": "anti-C. difficile activity of conditioned media from B. uniformis gshD mutant grown with polydatin", "value": "ablated in B. uniformis AgshD"}]}
